Where a name gives a salt, the structure may show the parent alone. Read-outs that look alike come from different tables or passages of the source.
Tests used:
[1] = tested on: Pseudomonas aeruginosa (P. aeruginosa) 27853; assay: Antibacterial activity, MIC, P. aeruginosa 27853; assay type: cell-based; conditions: Pseudomonas aeruginosa, P. aeruginosa 27853; read-out: MIC 27853
From the text: (§1) The antibacterial activity from a microbroth dilution method may be presented as the minimum inhibitory concentration (MIC in […]). The MIC value is the lowest concentration of a drug which prevents macroscopically visible bacterial growth under test conditions.
Antibacterial activity of test compounds against the Gram-negative bacterium Pseudomonas aeruginosa (P. aeruginosa) 27853 is shown in Table 5.

[2] = tested on: Moraxella catarrhalis (M. catarrhalis) 25238; assay: Antibacterial activity, MIC, M. catarrhalis 25238; assay type: cell-based; conditions: Moraxella catarrhalis, M. catarrhalis 25238; read-out: MIC 25238
[3] = tested on: E. coli ELZ4251 (MDR clinical isolate); assay: Antibacterial activity, MIC, MDR E. coli ELZ4251; assay type: cell-based, Escherichia coli; conditions: Escherichia coli, E. coli ELZ4251, MDR clinical isolate; read-out: MIC ELZ4251
[4] = tested on: control Gram-negative E. coli 25922 strain; assay: Antibacterial activity, microbroth dilution MIC, E. coli 25922; assay type: cell-based, Escherichia coli; conditions: Escherichia coli; E. coli 25922, microbroth dilution; read-out: MIC, 25922
[5] = tested on: super sensitive Gram-negative Escherichia coli (E. coli) BAS849; assay: Antibacterial activity, microbroth dilution MIC, E. coli BAS849; assay type: cell-based; conditions: Escherichia coli, read-out: MIC, BAS849
[6] = tested on: Acinetobacter baumannii (A. baumannii) BAA747; assay: Antibacterial activity, MIC, A. baumannii BAA747; assay type: cell-based; conditions: Acinetobacter baumannii; A. baumannii BAA747; read-out: MIC BAA747
[7] = tested on: E. coli ELZ4000 (MDR clinical isolate); assay: Antibacterial activity, MIC, MDR E. coli ELZ4000; assay type: cell-based, Escherichia coli; conditions: Escherichia coli; E. coli ELZ4000, MDR clinical isolate; read-out: MIC ELZ4000
[8] = tested on: quinolone resistant E. coli LZ3111; assay: Antibacterial activity, MIC, quinolone resistant E. coli LZ3111; assay type: cell-based, Escherichia coli; conditions: Escherichia coli, read-out: MIC, LZ3111
From the text: as §1
Mutations in these regions are known to confer a high level resistance to the quinolone class of antibiotics.

[9] = tested on: Gram-positive Staphylococcus aureus (S. aureus) 29213; assay: Antibacterial activity, microbroth dilution MIC, S. aureus 29213; assay type: cell-based; conditions: Staphylococcus aureus; S. aureus 29213, microbroth dilution; read-out: MIC, 29213
[10] = tested on: Neisseria meningitidis (N. meningitidis) 13090; assay: Antibacterial activity, MIC, N. meningitidis 13090; assay type: cell-based; conditions: Neisseria meningitidis; N. meningitidis 13090; read-out: MIC 13090
[11] = tested on: Haemophilus influenzae (H. influenzae) 49247; assay: Antibacterial activity, MIC, H. influenzae 49247; assay type: cell-based; conditions: Haemophilus influenzae; H. influenzae 49247; read-out: MIC 49247
Outline: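 Antibacterial activity against the Gram-negative organism Haemophilus influenzae strain 49247 was measured by microbroth dilution. The minimum inhibitory concentration (MIC) was taken as the lowest drug concentration that stopped bacterial growth from being visible to the naked eye under the test conditions.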

[12] = E. coli BAS849, microbroth dilution

Measured: MIC

CCc1cc(C(=O)O)c(=O)[nH]c1-c1ccccc1 [Cpd 75, 5-ethyl-2-oxo-6-phenyl-1,2-dihydropyridine-3-carboxylic acid]
1 to 3.5 µg/mL: [5]; [12]
12.5 to 150 µg/mL: [1] | [2] | [3] | [4] | [6] | [7] | [8] | [9]

CCc1c(-c2ccc(N3CCCC3=O)cc2)[nH]c(=O)c(C(=O)O)c1O [Cpd 115, 5-ethyl-4-hydroxy-2-oxo-6-[4-(2-oxopyrrolidin-1-yl)phenyl]-1,2-dihydropyridine-3-carboxylic acid]
3.5 to 12.5 µg/mL: [4]
< 1 µg/mL: [2] | [5]; [12] | [10] | [11]
12.5 to 150 µg/mL: [1] | [3] | [7] | [8] | [9]

CCc1cc(C(=O)O)c(=O)[nH]c1-c1ccc(N2CCC(O)C2)cc1 (stereo not shown) [Cpd 123, 5-ethyl-6-[4-(3-hydroxypyrrolidin-1-yl)phenyl]-2-oxo-1,2-dihydropyridine-3-carboxylic acid]
12.5 to 150 µg/mL: [3] | [7] | [8]
3.5 to 12.5 µg/mL: [1] | [9]
< 1 µg/mL: [2] | [4] | [5]; [12] | [10] | [11]

CCc1cc(C(=O)O)c(=O)[nH]c1-c1ccc(N2CCC(OCc3ccccc3)C2)cc1 (stereo not shown) [Cpd 128, 6-{4-[3-(benzyloxy)pyrrolidin-1-yl]phenyl}-5-ethyl-2-oxo-1,2-dihydropyridine-3-carboxylic acid]
< 1 µg/mL: [2] | [5]; [12] | [10]
12.5 to 150 µg/mL: [1] | [3] | [4] | [7] | [8]
1 to 3.5 µg/mL: [9] | [11]

CCc1cc(C(=O)O)c(=O)[nH]c1-c1ccc(N2CCC(N3CCOCC3)C2)cc1.O=C(O)C(F)(F)F (stereo not shown) [Cpd 140, 5-ethyl-6-{4-[3-(morpholin-4-yl)pyrrolidin-1-yl]phenyl}-2-oxo-1,2-dihydropyridine-3-carboxylic acid trifluoroacetate]
< 1 µg/mL: [2] | [5] | [10] | [11]
3.5 to 12.5 µg/mL: [4]
12.5 to 150 µg/mL: [1] | [3] | [7] | [8] | [9]

CCc1cc(C(=O)O)c(=O)[nH]c1-c1ccc(N2CCC[C@@H]2C(F)(F)F)cc1 [Cpd 141, 5-ethyl-2-oxo-6-{4-[(2R)-2-(trifluoromethyl)pyrrolidin-1-yl]phenyl}-1,2-dihydropyridine-3-carboxylic acid]
12.5 to 150 µg/mL: [1] | [3] | [4] | [7] | [8]
3.5 to 12.5 µg/mL: [9]
< 1 µg/mL: [2] | [5]; [12] | [10] | [11]

CCc1cc(C(=O)O)c(=O)[nH]c1-c1ccc(N2CCC(F)(F)C2)cc1 [Cpd 144, 6-[4-(3,3-difluoropyrrolidin-1-yl)phenyl]-5-ethyl-2-oxo-1,2-dihydropyridine-3-carboxylic acid]
3.5 to 12.5 µg/mL: [9]
< 1 µg/mL: [2] | [5]; [12] | [10] | [11]
1 to 3.5 µg/mL: [4]
12.5 to 150 µg/mL: [1] | [3] | [7] | [8]

CCc1cc(C(=O)O)c(=O)[nH]c1-c1ccc(N2CCC[C@@H]2COC)cc1 [Cpd 147, 5-ethyl-6-{4-[(2R)-2-(methoxymethyl)pyrrolidin-1-yl]phenyl}-2-oxo-1,2-dihydropyridine-3-carboxylic acid]
12.5 to 150 µg/mL: [1] | [3] | [7] | [8]
3.5 to 12.5 µg/mL: [4] | [9]
< 1 µg/mL: [2] | [5]; [12] | [10] | [11]

CCc1cc(C(=O)O)c(=O)[nH]c1-c1ccc(N2CC[C@@H](N(C)C)C2)cc1.O=C(O)C(F)(F)F [Cpd 150, 6-{4-[(3R)-3-(dimethylamino)pyrrolidin-1-yl]phenyl}-5-ethyl-2-oxo-1,2-dihydropyridine-3-carboxylic acid trifluoroacetate]
12.5 to 150 µg/mL: [1] | [3] | [7] | [8] | [9]
< 1 µg/mL: [2] | [5] | [10] | [11]
1 to 3.5 µg/mL: [4]

CCc1cc(C(=O)O)c(=O)[nH]c1-c1ccc(N2CC[C@H](N(C)C)C2)cc1.Cl [Cpd 151, 6-{4-[(3S)-3-(dimethylamino)pyrrolidin-1-yl]phenyl}-5-ethyl-2-oxo-1,2-dihydropyridine-3-carboxylic acid hydrochloride]
1 to 3.5 µg/mL: [4]
12.5 to 150 µg/mL: [1] | [3] | [7] | [8] | [9]
< 1 µg/mL: [2] | [5]; [12] | [10] | [11]

CCc1cc(C(=O)O)c(=O)[nH]c1-c1ccc(N2CC[C@@H](F)C2)cc1 [Cpd 154, 5-ethyl-6-{4-[(3R)-3-fluoropyrrolidin-1-yl]phenyl}-2-oxo-1,2-dihydropyridine-3-carboxylic acid]
12.5 to 150 µg/mL: [1] | [3] | [7] | [8]
3.5 to 12.5 µg/mL: [9]
1 to 3.5 µg/mL: [4]
< 1 µg/mL: [2] | [5]; [12] | [10] | [11]

CCc1cc(C(=O)O)c(=O)[nH]c1-c1ccc(Nc2ccccc2)cc1 [Cpd 155, 5-ethyl-2-oxo-6-[4-(phenylamino)phenyl]-1,2-dihydropyridine-3-carboxylic acid]
3.5 to 12.5 µg/mL: [9]
< 1 µg/mL: [2] | [5]; [12] | [10] | [11]
1 to 3.5 µg/mL: [4]
12.5 to 150 µg/mL: [1] | [3] | [7] | [8]

CCc1cc(C(=O)O)c(=O)[nH]c1-c1ccc(N2CCC[C@H]2C(=O)O)cc1 [Cpd 157, 6-{4-[(2S)-2-carboxypyrrolidin-1-yl]phenyl}-5-ethyl-2-oxo-1,2-dihydropyridine-3-carboxylic acid]
3.5 to 12.5 µg/mL: [4]
< 1 µg/mL: [2] | [5]; [12] | [10] | [11]
12.5 to 150 µg/mL: [1] | [3] | [7] | [8] | [9]

CCc1c(-c2ccc(N3C[C@@H]4[C@H](C3)[C@H]4N(C)C)cc2)[nH]c(=O)c(C(=O)O)c1O [Cpd 271, 6-{4-[(1R,5S,6s)-6-(dimethylamino)-3-azabicyclo[3.1.0]hex-3-yl]phenyl}-5-ethyl-4-hydroxy-2-oxo-1,2-dihydropyridine-3-carboxylic acid hydrochloride]
3.5 to 12.5 µg/mL: [3] | [4] | [8]
< 1 µg/mL: [5]; [12]
12.5 to 150 µg/mL: [1] | [6] | [7] | [9]

CCc1c(-c2ccc(N3CC=CC3)cc2)[nH]c(=O)c(C(=O)O)c1O [Cpd 302, 6-[4-(2,5-dihydro-1H-pyrrol-1-yl)phenyl]-5-ethyl-4-hydroxy-2-oxo-1,2-dihydropyridine-3-carboxylic acid]
12.5 to 150 µg/mL: [3] | [7] | [8]
< 1 µg/mL: [2] | [5]; [12] | [10] | [9] | [11]
3.5 to 12.5 µg/mL: [1]
1 to 3.5 µg/mL: [4]

CCc1c(-c2ccc(N3C[C@@H](O)[C@@H](O)C3)cc2)[nH]c(=O)c(C(=O)O)c1O [Cpd 304, 6-{4-[(3R,4S)-3,4-dihydroxypyrrolidin-1-yl]phenyl}-5-ethyl-4-hydroxy-2-oxo-1,2-dihydropyridine-3-carboxylic acid]
3.5 to 12.5 µg/mL: [4] | [9]
< 1 µg/mL: [2] | [5]; [12] | [10] | [11]
12.5 to 150 µg/mL: [1] | [3] | [7] | [8]

CN(C)c1ccc(-c2ccc(C(=O)O)c(=O)[nH]2)cc1 [Cpd 310, 6-[4-(dimethylamino)phenyl]-2-oxo-1,2-dihydropyridine-3-carboxylic acid]
12.5 to 150 µg/mL: [1] | [2] | [3] | [4] | [5]; [12] | [6] | [7] | [8] | [9]

Reference: US9650395B2, “Antibacterial compounds and methods for use” (PTC Therapeutics, Inc., priority 2011, dated 2017)
